Assay results published in publication PMC2993163 (Structure (London, England : 1993), 2009).

Molecular target: T1, BdRppH (Bdellovibrio bacteriovorus, UniProt Q6MPX4)
T1 sequence (Q6MPX4 1-153): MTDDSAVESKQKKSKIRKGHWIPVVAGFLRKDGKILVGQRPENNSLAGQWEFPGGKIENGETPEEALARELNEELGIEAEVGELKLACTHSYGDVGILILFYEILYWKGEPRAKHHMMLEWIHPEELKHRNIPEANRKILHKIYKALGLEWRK
Assay: X-ray crystal structure
Assay type: binding
Settings: deposited complex; not described in text

## Nc1nc2c(ncn2[C@H]2C[C@H](O)[C@@H](COP(=O)(O)OP(=O)(O)OP(=O)(O)O)O2)c(=O)[nH]1 [dGTP]
  X-ray crystal structure: RNA pyrophosphohydrolase in complex with dGTP
